Experimental findings from patent publication US20090131313A1, “LKKTET AND/OR LKKTNT PEPTIDE COMPOSITIONS AND METHODS FOR TREATING OR PREVENTING TISSUE DETERIORATION, INJURY OR DAMAGE” (REGENERX BIOPHARMACEUTICALS, INC., priority 2005, published 2009) are described below.

Data set [1] deals with Human corneal epithelial cells. Put plainly: BrdU incorporation cell proliferation assay. Format: cell-based. To be noted: 1 mcg/ml Tβ4, 3 and 24 hour time points. The protocol: (§1) Human corneal epithelial cells at approximately 80% confluence were treated with 0%, 0.001%, 0.01%, or 0.1% BAK for 15 minutes. After 3 and 24 hours of recovery in culture medium, cell proliferation was measured using a calorimetric BrdU incorporation assay. Apoptosis was measured using a calorimetric annexin-based cell death assay. […] To further assess the ability of Tb4 to prevent apoptosis, corneal epithelial cells were treated with 0.01% BAK±Tβ4 over a 5 day time course.
For orientation: Uptake of a labelled nucleoside into DNA is a usual measure of proliferation.

Data set [2] relates to Human corneal epithelial cells. Briefly: annexin-based cell death (apoptosis) assay. The protocol: as §1

Turning to “Thymosin beta 4 (SDKPDMAEIEKFDKSKLKKTETQEKNPLPSKETIEQEKQAGES; Thymosin beta-4; UniProt P62328 2-44, looked up) [Tβ4]”, the “cell proliferation of BAK-treated cells in the presence of Tβ4” value in data set [1] is “not promoted”. Further, in data set [2] (1 mcg/ml Tβ4, BAK-treated cells, 3 and 24 hour time points), the “apoptosis of BAK-treated cells in the presence of Tβ4” value is “not inhibited”. For the same substance, the “apoptosis compared to cells cultured in medium alone” value in data set [2] (Tβ4-treated cells, 5 days in culture) is reported as “decreased apoptosis”.
Turning to “benzalkonium chloride [BAK, reference compound]”, the “corneal epithelial cell apoptosis compared to control” value in data set [2] (0.001%, 0.01% or 0.1% BAK for 15 minutes, 3 and 24 hours recovery) was “increased”.
